Results as given in PubChem BioAssay AID1963863 (Molecular Pharmacology Branch, DTP, NCI, 2024).

System: 931267-113-T-J1-PDC KRAS spheroid with HUVEC/MSC, viability
Assay: Anticancer human tumor 931267-113-T-J1-PDC patient-derived colon adenocarcinoma cell line growth inhibition [KRAS2]
Details: for IC50: curve of first compound; for viability, T/C: stronger effect = lower value
Method in brief: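 KRAS-mutant tumor cells were grown as spheroids with HUVEC endothelial cells and human MSCs as stroma. Targeted agents were tested alone and with KRAS pathway inhibitors. Doses started at or near clinical Cmax, or 10 microM, descending half-log.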

[1] = second compound 0.0316 µM, first compound 0.0316 µM
[2] = second compound 0.0316 µM, first compound 0.1 µM
[3] = second compound 0.0316 µM, first compound 0.316 µM
[4] = second compound 0.0316 µM, first compound 1 µM
[5] = second compound 0.0316 µM, first compound 3.16 µM
[6] = second compound 0.0316 µM, first compound 10 µM
[7] = second compound 0.1 µM, first compound 0.0316 µM
[8] = second compound 0.1 µM, first compound 0.1 µM
[9] = second compound 0.1 µM, first compound 0.316 µM
[10] = second compound 0.1 µM, first compound 1 µM
[11] = second compound 0.1 µM, first compound 3.16 µM
[12] = second compound 0.1 µM, first compound 10 µM
[13] = second compound 0.316 µM, first compound 0.0316 µM
[14] = second compound 0.316 µM, first compound 0.1 µM
[15] = second compound 0.316 µM, first compound 0.316 µM
[16] = second compound 0.316 µM, first compound 1 µM
[17] = second compound 0.316 µM, first compound 3.16 µM
[18] = second compound 0.316 µM, first compound 10 µM
[19] = second compound 1 µM, first compound 0.0316 µM
[20] = second compound 1 µM, first compound 0.1 µM
[21] = second compound 1 µM, first compound 0.316 µM
[22] = second compound 1 µM, first compound 1 µM
[23] = second compound 1 µM, first compound 3.16 µM
[24] = second compound 1 µM, first compound 10 µM
[25] = second compound 3.16 µM, first compound 0.0316 µM
[26] = second compound 3.16 µM, first compound 0.1 µM
[27] = second compound 3.16 µM, first compound 0.316 µM
[28] = second compound 3.16 µM, first compound 1 µM
[29] = second compound 3.16 µM, first compound 3.16 µM
[30] = second compound 3.16 µM, first compound 10 µM
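Also: compound exposure lasted 7 days before the readout.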
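For viability, T/C in this document: 100% = DMSO vehicle control viability.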

CC1OCC2(CCN(c3cnc(Sc4ccnc(N)c4Cl)c(N)n3)CC2)C1N (stereo not given) + C=CC(=O)N1CCN(c2nc(OCC3CCCN3C)nc3c2CCN(c2cccc4cccc(C)c24)C3)CC1CC#N
IC50 (second compound 0.0316 µM): > 10000 nM | IC50 (second compound 0.1 µM): > 10000 nM | IC50 (second compound 0.316 µM): > 10000 nM | IC50 (second compound 1 µM): > 10000 nM | IC50 (second compound 3.16 µM): < 31.6 nM | viability, T/C [1]: 111% | viability, T/C [2]: 81.9% | viability, T/C [3]: 77.3% | viability, T/C [4]: 58.2% | viability, T/C [5]: 80% | viability, T/C [6]: 83% | viability, T/C [7]: 98.3% | viability, T/C [8]: 75.6% | viability, T/C [9]: 79.1% | viability, T/C [10]: 75.2% | viability, T/C [11]: 71.1% | viability, T/C [12]: 99.3% | viability, T/C [13]: 93% | viability, T/C [14]: 87.8% | viability, T/C [15]: 69.1% | viability, T/C [16]: 70.2% | viability, T/C [17]: 75.6% | viability, T/C [18]: 69.6% | viability, T/C [19]: 78% | viability, T/C [20]: 65.9% | viability, T/C [21]: 55.2% | viability, T/C [22]: 68.7% | viability, T/C [23]: 68.8% | viability, T/C [24]: 61.2% | viability, T/C [25]: 0.31% | viability, T/C [26]: 0.29% | viability, T/C [27]: 0.36% | viability, T/C [28]: 0.26% | viability, T/C [29]: 0.28% | viability, T/C [30]: 0.26%

Cn1nccc1Nc1nccc(-c2cc3c(s2)C(C)(C)N(CCN2CCOCC2)C3=O)n1 + C=CC(=O)N1CCN(c2nc(OCC3CCCN3C)nc3c2CCN(c2cccc4cccc(C)c24)C3)CC1CC#N
IC50 (second compound 0.0316 µM): 424 nM | IC50 (second compound 0.1 µM): 526 nM | IC50 (second compound 0.316 µM): 400 nM | IC50 (second compound 1 µM): 365 nM | IC50 (second compound 3.16 µM): < 31.6 nM | viability, T/C [1]: 118% | viability, T/C [2]: 97.7% | viability, T/C [3]: 59.8% | viability, T/C [4]: 23% | viability, T/C [5]: 7.09% | viability, T/C [6]: 4.66% | viability, T/C [7]: 88.9% | viability, T/C [8]: 92% | viability, T/C [9]: 57.8% | viability, T/C [10]: 37.8% | viability, T/C [11]: 4.83% | viability, T/C [12]: 4.43% | viability, T/C [13]: 107% | viability, T/C [14]: 91% | viability, T/C [15]: 55.7% | viability, T/C [16]: 25.5% | viability, T/C [17]: 6.39% | viability, T/C [18]: 4.33% | viability, T/C [19]: 88.5% | viability, T/C [20]: 65.9% | viability, T/C [21]: 59.7% | viability, T/C [22]: 23.2% | viability, T/C [23]: 3.82% | viability, T/C [24]: 2.07% | viability, T/C [25]: 0.35% | viability, T/C [26]: 0.25% | viability, T/C [27]: 0.29% | viability, T/C [28]: 0.14% | viability, T/C [29]: 0.14% | viability, T/C [30]: 0.22%

CC(=O)OC12COC1CC(O)C1(C)C(=O)C(O)C3=C(C)C(OC(=O)C(O)C(NC(=O)OC(C)(C)C)c4ccccc4)CC(O)(C(OC(=O)c4ccccc4)C21)C3(C)C (stereo not given) + CC1OCC2(CCN(c3cnc(Sc4ccnc(N)c4Cl)c(N)n3)CC2)C1N
IC50 (second compound 0.1 µM): > 3160 nM | IC50 (second compound 0.316 µM): > 3160 nM | IC50 (second compound 1 µM): > 3160 nM | IC50 (second compound 3.16 µM): 289 nM | IC50 (second compound 10 µM): 278 nM | viability, T/C (second compound 0.1 µM, first compound 0.01 µM): 88.4% | viability, T/C [7]: 90.5% | viability, T/C [8]: 74.8% | viability, T/C [9]: 80% | viability, T/C [10]: 86.2% | viability, T/C [11]: 91.4% | viability, T/C (second compound 0.316 µM, first compound 0.01 µM): 74.8% | viability, T/C [13]: 90.5% | viability, T/C [14]: 64.9% | viability, T/C [15]: 65.4% | viability, T/C [16]: 78.6% | viability, T/C [17]: 58.5% | viability, T/C (second compound 1 µM, first compound 0.01 µM): 95.2% | viability, T/C [19]: 111% | viability, T/C [20]: 108% | viability, T/C [21]: 82.8% | viability, T/C [22]: 79.5% | viability, T/C [23]: 93.2% | viability, T/C (second compound 3.16 µM, first compound 0.01 µM): 52.3% | viability, T/C [25]: 74.3% | viability, T/C [26]: 53% | viability, T/C [27]: 50.6% | viability, T/C [28]: 48.9% | viability, T/C [29]: 49.7% | viability, T/C (second compound 10 µM, first compound 0.01 µM): 59% | viability, T/C (second compound 10 µM, first compound 0.0316 µM): 63.4% | viability, T/C (second compound 10 µM, first compound 0.1 µM): 66.8% | viability, T/C (second compound 10 µM, first compound 0.316 µM): 38% | viability, T/C (second compound 10 µM, first compound 1 µM): 50.4% | viability, T/C (second compound 10 µM, first compound 3.16 µM): 56.6%
